The values that follow come from patent US20100137313A1 (ASTRAZENECA AB, priority 2008, published 2010).

Sequence of S. pneumoniae Topoisomerase IV ATPase (ParE) (Q59961 whole entry): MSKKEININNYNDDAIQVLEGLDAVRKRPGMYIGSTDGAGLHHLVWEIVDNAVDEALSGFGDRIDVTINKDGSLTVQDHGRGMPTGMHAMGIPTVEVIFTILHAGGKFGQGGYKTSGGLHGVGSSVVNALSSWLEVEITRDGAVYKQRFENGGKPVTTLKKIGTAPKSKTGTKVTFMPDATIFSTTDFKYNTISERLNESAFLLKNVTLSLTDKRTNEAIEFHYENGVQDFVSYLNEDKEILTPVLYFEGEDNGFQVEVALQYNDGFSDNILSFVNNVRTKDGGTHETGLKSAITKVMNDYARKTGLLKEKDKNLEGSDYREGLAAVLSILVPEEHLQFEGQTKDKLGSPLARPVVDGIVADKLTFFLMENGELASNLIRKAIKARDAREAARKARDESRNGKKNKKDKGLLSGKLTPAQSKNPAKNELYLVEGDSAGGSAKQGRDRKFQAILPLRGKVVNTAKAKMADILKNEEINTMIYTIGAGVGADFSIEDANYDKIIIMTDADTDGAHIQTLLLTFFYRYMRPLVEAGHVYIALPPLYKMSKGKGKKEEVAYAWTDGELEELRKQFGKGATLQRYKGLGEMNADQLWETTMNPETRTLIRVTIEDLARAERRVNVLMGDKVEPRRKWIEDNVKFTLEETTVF

For the experiment, the target named is S. pneumoniae Topoisomerase IV ATPase (ParE) (Streptococcus pneumoniae serotype 4, UniProt Q59961). The experiment in a line: S. pneumoniae Topoisomerase IV ATPase inhibition. The format is biochemical. The settings on record: values marked * are an average of two or more data points, read-out: % Inh (13 μM) of S. pneumoniae Topoisomerase IV ATPase. As for the experimental part:
S. pneumoniae Topoisomerase IV ATPase Inhibition Activity: Compounds may be tested for inhibition of S. pneumoniae ParE ATPase activity using an ammonium molybdate/malachite green-based phosphate detection assay (Lanzetta, P. A., L. J. Alvarez, P. S. Reinach, and O. A. Candia, 1979, 100: 95-97). Assays are performed in multiwell plates in 30 μl reactions containing: 20 mM Tris buffer pH 8.0, 50 mM ammonium acetate, 8.0 mM magnesium chloride, 0.5 mM ethylenediaminetetraacetic acid, 5% glycerol, 5 mM 1,4-Dithio-DL-threitol, 0.005% Brij-35, 5 μg/ml sheared salmon sperm DNA, 1.25 nM S. pneumoniae ParE, 160 μM ATP, and test compound in dimethylsulfoxide. Reactions are quenched with 30 μl of ammonium molybdate/malachite green detection reagent containing 1.2 mM malachite green hydrochloride, 8.5 mM ammonium molybdate tetrahydrate, and 1 M hydrochloric acid. Plates are read in an absorbance plate reader at 650 nm and percent inhibition values are calculated using dimethylsulfoxide (2%)-containing reactions as 0% inhibition and EDTA-containing ([…]) reactions as 100% inhibition controls. An IC50 measurement of compound potency for each compound can be determined from reactions performed in the presence of 10 different compound concentrations.
Many of the compounds of the invention were tested in an assay substantially similar to the assays described above for measuring the inhibition of E.coli GyrB ATPase, E. coli Topoisomerase IV ATPase, S. aureus GyrB ATPase, and S. pneumoniae Topoisomerase IV ATPase, and had IC50 values of <200 μM in one or more assays.
For the compound `CNC(=O)C1CCN(c2nc(Nc3ccc(F)c(Cl)c3)ncc2-c2cncnc2)CC1` [Example 63, 1-[2-[(3-chloro-4-fluorophenyl)amino]-5-pyrimidin-5-ylpyrimidin-4-yl]-N-methylpiperidine-4-carboxamide], the inhibition at 13 µM was determined as 69.9%.

As to `Fc1ccc(Nc2ncc(-c3cncnc3)c(N3CCC(F)CC3)n2)cc1Cl` [Example 64, N-(3-chloro-4-fluorophenyl)-4-(4-fluoropiperidin-1-yl)-5-pyrimidin-5-ylpyrimidin-2-amine], the inhibition at 13 µM came out at 65.4%.

`COC1CCN(c2nc(Nc3ccc(F)c(Cl)c3)ncc2-c2cncnc2)CC1` [Example 65, N-(3-chloro-4-fluorophenyl)-4-(4-methoxypiperidin-1-yl)-5-pyrimidin-5-ylpyrimidin-2-amine]: the inhibition at 13 µM is 75.9%.

Take `OC1CCN(c2nc(Nc3ccc(F)c(Cl)c3)ncc2-c2cncnc2)C1` (stereo not drawn) [Example 66, 1-[2-[(3-chloro-4-fluorophenyl)amino]-5-pyrimidin-5-ylpyrimidin-4-yl]pyrrolidin-3-ol]: the inhibition at 13 µM came to 62.1%.

As for `Fc1ccc(Nc2ncc(-c3cncnc3)c(N3CCC3)n2)cc1Cl` [Example 67, 4-(azetidin-1-yl)-N-(3-chloro-4-fluorophenyl)-5-pyrimidin-5-ylpyrimidin-2-amine], the inhibition at 13 µM is 53.4%.

`O[C@H]1CC[C@H](Nc2nc(Nc3ccc(F)c(Cl)c3)ncc2-c2cncnc2)CC1` [Example 68, trans-4-[[2-[(3-chloro-4-fluorophenyl)amino]-5-pyrimidin-5-ylpyrimidin-4-yl]amino]cyclohexan-1-ol]: the inhibition at 13 µM was 72.9%.

In the case of `CC(=O)NC1CCN(c2nc(Nc3ccc(F)c(Cl)c3)ncc2-c2cncnc2)CC1` [Example 69, N-[1-[2-[(3-chloro-4-fluorophenyl)amino]-5-pyrimidin-5-ylpyrimidin-4-yl]piperidin-4-yl]acetamide], the inhibition at 13 µM stood at 77%.

On to `Cc1cc(C(F)(F)F)nn1-c1nc(Nc2ccc(F)c(Cl)c2)ncc1-c1cncnc1` [Example 70, N-(3-chloro-4-fluorophenyl)-4-[5-methyl-3-(trifluoromethyl)-1H-pyrazol-1-yl]-5,5′-bipyrimidin-2-amine], for which the inhibition at 13 µM was determined as 86.6%.

For `Fc1ccc(Nc2ncc(-c3cncnc3)c(-n3ccc(C(F)(F)F)n3)n2)cc1Cl` [Example 71, N-(3-chloro-4-fluorophenyl)-4-[3-(trifluoromethyl)-1H-pyrazol-1-yl]-5,5′-bipyrimidin-2-amine], the inhibition at 13 µM was 66.7%.

For the compound `Fc1ccc(Nc2ncc(-c3cncnc3)c(-n3cnc(Cl)c3Cl)n2)cc1Cl` [Example 72, N-(3-chloro-4-fluorophenyl)-4-(4,5-dichloro-1H-imidazol-1-yl)-5,5′-bipyrimidin-2-amine], the inhibition at 13 µM came to 52.6%.

`Fc1ccc(Nc2ncc(-c3cncnc3)c(-n3cccc3)n2)cc1Cl` [Example 73, N-(3-chloro-4-fluorophenyl)-4-(1H-pyrrol-1-yl)-5,5′-bipyrimidin-2-amine]: the inhibition at 13 µM was 89.6%.

As for `CC(C)(C)OC(=O)NCCCNc1nc(Nc2ccc(F)c(Cl)c2)ncc1-c1cncnc1` [Example 74, tert-butyl 3-(2-(3-chloro-4-fluorophenylamino)-5,5′-bipyrimidin-4-ylamino)propylcar-bamate], the inhibition at 13 µM worked out at 103%.

As to `COCCCNc1nc(Nc2ccc(F)c(Cl)c2)ncc1-c1cncnc1` [Example 75, N^2-(3-chloro-4-fluorophenyl)-N^4-(3-methoxypropyl)-5,5′-bipyrimidin-2,4-diamine], the inhibition at 13 µM was determined as 97.6%.

As for `Fc1ccc(Nc2ncc(-c3cncnc3)c(N3CCOCC3)n2)cc1Cl` [Example 76, N-(3-chloro-4-fluorophenyl)-4-morpholin-5,5′-bipyrimidin-2-amine], the inhibition at 13 µM was 79.3%.

`COc1ncc(-c2cnc(Nc3ccc(F)c(Cl)c3)nc2N2CCOCC2)cn1` [Example 77, N-(3-chloro-4-fluorophenyl)-2′-methoxy-4-morpholin-5,5′-bipyrimidin-2-amine]: the inhibition at 13 µM was 83%.

Take `COCCCNc1nc(Nc2ccc(F)c(Cl)c2)ncc1-c1cnc(OC)nc1` [Example 78, N^2-(3-chloro-4-fluorophenyl)-2′-methoxy-N^4-(3-methoxypropyl)-5,5′-bipyrimidine-2,4-diamine]: the inhibition at 13 µM came out at 80.9%.

Consider `CN(C)CCCNc1nc(Nc2ccc(F)c(Cl)c2)ncc1-c1cncc(-c2noc(=O)[nH]2)c1` [Example 81, Sodium 3-(5-(2-(3-chloro-4-fluorophenylamino)-4-(3-(dimethylamino)propylamino)pyrimidin-5-yl)pyridin-3-yl)-5-oxo-1,2,4-oxadiazol-4-ide], for which the inhibition at 13 µM came out at 72.6%.

For the compound `Cc1cc(C)n(-c2nc(Nc3ccc(F)c(Cl)c3)ncc2-c2cncnc2)n1` [Example 82, N-(3-chloro-4-fluorophenyl)-4-(3,5-dimethyl-1H-pyrazol-1-yl)-5,5′-bipyrimidin-2-amine], the inhibition at 13 µM amounted to 80.1%.

With `Fc1ccc(Nc2ncc(-c3cncnc3)c(-n3cnc(C(F)(F)F)c3)n2)cc1Cl` [Example 84, N-(3-chloro-4-fluorophenyl)-4-[4-(trifluoromethyl)-1H-imidazol-1-yl]-5,5′-bipyrimidin-2-amine], the inhibition at 13 µM amounted to 79.6%.

`Cc1nccn1-c1nc(Nc2ccc(F)c(Cl)c2)ncc1-c1cncnc1` [Example 85, N-(3-chloro-4-fluorophenyl)-4-(2-methyl-1H-imidazol-1-yl)-5,5′-bipyrimidin-2-amine]: the inhibition at 13 µM was 66.8%.

For the compound `Fc1ccc(Nc2ncc(-c3cncnc3)c(-n3nccn3)n2)cc1Cl` [Example 86, N-(3-chloro-4-fluorophenyl)-4-(2H-1,2,3-triazol-2-yl)-5,5′-bipyrimidin-2-amine], the inhibition at 13 µM is 91.1%.

For the compound `Fc1ccc(Nc2ncc(-c3cncnc3)c(-n3nnc4ncccc43)n2)cc1Cl` [Example 88, N-(3-chloro-4-fluorophenyl)-4-(1H-[1,2,3]triazolo[4,5-b]pyridin-1-yl)-5,5′-bipyrimidin-2-amine], the inhibition at 13 µM was 102%.

`Fc1ccc(Nc2ncc(-c3cncnc3)c(-n3nnc4ccccc43)n2)cc1Cl` [Example 89, 4-(1H-benzotriazol-1-yl)-N-(3-chloro-4-fluorophenyl)-5,5′-bipyrimidin-2-amine]: the inhibition at 13 µM is 85.3%.

With `CCCNc1nc(Nc2ccc(F)c(Cl)c2)ncc1-c1cncc(C(=O)OCC)c1` [Example 90, 5-[2-(3-Chloro-4-fluoro-phenylamino)-4-propylamino-pyrimidin-5-yl]-nicotinic acid ethyl ester], the inhibition at 13 µM came to 24.6%.

For the compound `CCOC(=O)c1cncc(-c2cnc(Nc3ccc(F)c(Cl)c3)nc2NCCCN2CCCC2=O)c1` [Example 91, 5-{2-(3-Chloro-4-fluoro-phenylamino)-4-[3-(2-oxo-pyrrolidin-1-yl)-propylamino]-pyrimidin-5-yl}-nicotinic acid ethyl ester], the inhibition at 13 µM turned out to be 83.1%.

Take `CCOC(=O)c1cncc(-c2cnc(Nc3ccc(F)c(Cl)c3)nc2NC2CCN(C(C)=O)CC2)c1` [Example 92, 5-[4-(1-Acetyl-piperidin-4-ylamino)-2-(3-chloro-4-fluoro-phenylamino)-pyrimidin-5-yl]-nicotinic acid ethyl ester]: the inhibition at 13 µM was 3.56%.

Take `CCOC(=O)c1cncc(-c2cnc(Nc3ccc(F)c(Cl)c3)nc2NCCN(C)C)c1` [Example 93]: the inhibition at 13 µM amounted to 79.6%.
